Assay: Stability of cannabinoid entourage and Vitamin E components of the powder concentrate by LCMSMS
Assay type: physicochemical
Settings: powder stored at 21-25° C.
Description: At each time period, 0.05 g of powder was dissolved in 10 ml-15 of ethanol, diluted to fall within the analytical range, and injected into the LCMSMS for analysis.

Structure (SMILES) | Stability of Plant-Derived Cannabinoid Compounds in Powder Concentrate (0 days) [mg/g powder] | Stability of Plant-Derived Cannabinoid Compounds in Powder Concentrate (1 days) [mg/g powder] | Stability of Plant-Derived Cannabinoid Compounds in Powder Concentrate (2 days) [mg/g powder] | Stability of Plant-Derived Cannabinoid Compounds in Powder Concentrate (3 days) [mg/g powder] | Stability of Plant-Derived Cannabinoid Compounds in Powder Concentrate (5 days) [mg/g powder] | Stability of Plant-Derived Cannabinoid Compounds in Powder Concentrate (8 days) [mg/g powder] | Stability of Plant-Derived Cannabinoid Compounds in Powder Concentrate (9 days) [mg/g powder] | Stability of Plant-Derived Cannabinoid Compounds in Powder Concentrate (10 days) [mg/g powder] | Stability of Plant-Derived Cannabinoid Compounds in Powder Concentrate (11 days) [mg/g powder] | Stability of Plant-Derived Cannabinoid Compounds in Powder Concentrate (12 days) [mg/g powder] | Stability of Plant-Derived Cannabinoid Compounds in Powder Concentrate (15 days) [mg/g powder] | Stability of Plant-Derived Cannabinoid Compounds in Powder Concentrate (16 days) [mg/g powder] | Stability of Plant-Derived Cannabinoid Compounds in Powder Concentrate (17 days) [mg/g powder] | Stability of Plant-Derived Cannabinoid Compounds in Powder Concentrate (18 days) [mg/g powder] | Stability of Plant-Derived Cannabinoid Compounds in Powder Concentrate (19 days) [mg/g powder] | Stability of Plant-Derived Cannabinoid Compounds in Powder Concentrate (22 days) [mg/g powder] | Stability of Plant-Derived Cannabinoid Compounds in Powder Concentrate (23 days) [mg/g powder] | Stability of Plant-Derived Cannabinoid Compounds in Powder Concentrate (24 days) [mg/g powder] | Stability of Plant-Derived Cannabinoid Compounds in Powder Concentrate (25 days) [mg/g powder] | Stability of Plant-Derived Cannabinoid Compounds in Powder Concentrate (26 days) [mg/g powder] | further results
C=C(C)[C@@H]1CCC(C)=C[C@H]1c1c(O)cc(CCCCC)c(C(=O)O)c1O [CBDA, cannabidiolic acid] | 0.410 | 0.412 | 0.407 | 0.406 | 0.414 | 0.415 | 0.410 | 0.418 | 0.415 | 0.396 | 0.399 | 0.427 | 0.421 | 0.418 | 0.414 | 0.419 | 0.396 | 0.403 | 0.401 | 0.397 | Stability of Plant-Derived Cannabinoid Compounds in Powder Concentrate (29 days): 0.426 mg/g powder; Stability of Plant-Derived Cannabinoid Compounds in Powder Concentrate (30 days): 0.405 mg/g powder; Stability of Plant-Derived Cannabinoid Compounds in Powder Concentrate (60 days): 0.418 mg/g powder; Stability of Plant-Derived Cannabinoid Compounds in Powder Concentrate (90 days): 0.413 mg/g powder; Stability of Plant-Derived Cannabinoid Compounds in Powder Concentrate (120 days): 0.403 mg/g powder; Stability of Plant-Derived Cannabinoid Compounds in Powder Concentrate (150 days): 0.412 mg/g powder; Stability of Plant-Derived Cannabinoid Compounds in Powder Concentrate (180 days): 0.422 mg/g powder; Stability of Plant-Derived Cannabinoid Compounds in Powder Concentrate (210 days): 0.427 mg/g powder; Stability of Plant-Derived Cannabinoid Compounds in Powder Concentrate (240 days): 0.417 mg/g powder; Stability of Plant-Derived Cannabinoid Compounds in Powder Concentrate (270 days): 0.424 mg/g powder; Stability of Plant-Derived Cannabinoid Compounds in Powder Concentrate (300 days): 0.409 mg/g powder; Stability of Plant-Derived Cannabinoid Compounds in Powder Concentrate (330 days): 0.424 mg/g powder; Stability of Plant-Derived Cannabinoid Compounds in Powder Concentrate (360 days): 0.413 mg/g powder; Stability of Plant-Derived Cannabinoid Compounds in Powder Concentrate (390 days): 0.407 mg/g powder; Stability of Plant-Derived Cannabinoid Compounds in Powder Concentrate (420 days): 0.420 mg/g powder; Stability of Plant-Derived Cannabinoid Compounds in Powder Concentrate (450 days): 0.398 mg/g powder; Stability of Plant-Derived Cannabinoid Compounds in Powder Concentrate (480 days): 0.418 mg/g powder; Stability of Plant-Derived Cannabinoid Compounds in Powder Concentrate (510 days): 0.411 mg/g powder; Stability of Plant-Derived Cannabinoid Compounds in Powder Concentrate (540 days): 0.425 mg/g powder; Stability of Plant-Derived Cannabinoid Compounds in Powder Concentrate (570 days): 0.408 mg/g powder
CCCc1cc(O)c2c(c1)OC(C)(C)[C@@H]1CCC(C)=C[C@@H]21 [THCV, delta-9-tetrahydrocannabivarin] | 0.680 | 0.685 | 0.699 | 0.698 | 0.676 | 0.685 | 0.693 | 0.706 | 0.708 | 0.698 | 0.684 | 0.658 | 0.681 | 0.690 | 0.705 | 0.703 | 0.687 | 0.668 | 0.689 | 0.686 | Stability of Plant-Derived Cannabinoid Compounds in Powder Concentrate (29 days): 0.706 mg/g powder; Stability of Plant-Derived Cannabinoid Compounds in Powder Concentrate (30 days): 0.659 mg/g powder; Stability of Plant-Derived Cannabinoid Compounds in Powder Concentrate (60 days): 0.702 mg/g powder; Stability of Plant-Derived Cannabinoid Compounds in Powder Concentrate (90 days): 0.707 mg/g powder; Stability of Plant-Derived Cannabinoid Compounds in Powder Concentrate (120 days): 0.658 mg/g powder; Stability of Plant-Derived Cannabinoid Compounds in Powder Concentrate (150 days): 0.695 mg/g powder; Stability of Plant-Derived Cannabinoid Compounds in Powder Concentrate (180 days): 0.685 mg/g powder; Stability of Plant-Derived Cannabinoid Compounds in Powder Concentrate (210 days): 0.662 mg/g powder; Stability of Plant-Derived Cannabinoid Compounds in Powder Concentrate (240 days): 0.700 mg/g powder; Stability of Plant-Derived Cannabinoid Compounds in Powder Concentrate (270 days): 0.670 mg/g powder; Stability of Plant-Derived Cannabinoid Compounds in Powder Concentrate (300 days): 0.685 mg/g powder; Stability of Plant-Derived Cannabinoid Compounds in Powder Concentrate (330 days): 0.691 mg/g powder; Stability of Plant-Derived Cannabinoid Compounds in Powder Concentrate (360 days): 0.668 mg/g powder; Stability of Plant-Derived Cannabinoid Compounds in Powder Concentrate (390 days): 0.680 mg/g powder; Stability of Plant-Derived Cannabinoid Compounds in Powder Concentrate (420 days): 0.671 mg/g powder; Stability of Plant-Derived Cannabinoid Compounds in Powder Concentrate (450 days): 0.680 mg/g powder; Stability of Plant-Derived Cannabinoid Compounds in Powder Concentrate (480 days): 0.695 mg/g powder; Stability of Plant-Derived Cannabinoid Compounds in Powder Concentrate (510 days): 0.696 mg/g powder; Stability of Plant-Derived Cannabinoid Compounds in Powder Concentrate (540 days): 0.664 mg/g powder; Stability of Plant-Derived Cannabinoid Compounds in Powder Concentrate (570 days): 0.686 mg/g powder

From patent publication US20260130395A1, “Water Dispersible Botanical Compositions” (Aquila Black Limited, priority 2021, published 2026)
